System: THP-1 ASC-GFP cells
Assay: THP-1 ASC-GFP speck assay (NLRP3 inflammasome activation, nigericin)
Type: cell-based
Conditions: THP1-ASC-GFP; PMA-differentiated, LPS primed, 10 μM nigericin
Experimental: THP-1 ASC-GFP cell line was purchased from Invivogen, San Diego, for infammasome activation assay. THP-1 ASC-GFP cells stably express a 37.6 kDa ASC::GFP fusion protein that enables monitoring of spec formation by microscopy after activation of NLRP3 dependent inflammasome pathway. Cells were maintained at a density of 600,000 cells/mL in growth media consisting of RPMI 1640, 2 mM L-glutamine, 25 mM HEPES and 10% heat inactivated fetal bovine serum at 37° C. and 5% CO2. Cells were passaged every 3-4 days and used for assays for up to 20 passages.
THP-1 ASC-GFP cells were collected by centrifuging cells at 800 RPM for 5 minutes. Cell culture supernatant was removed and cells were re-suspended in fresh media at density of 1×10^6 cells/mL in assay media consisting of RPMI 1640, 2 mM L-glutamine, 25 mM HEPES and 10% heat inactivated fetal bovine serum. Phorbol 12-myristate 13-acetate (PMA) (Invivogen,tlrl-pma) was added to the cell suspension at a final concentration of 500 ng/ml and mixed thoroughly. 40,000 cells were added per well of a 384 well plate and differentiated into macrophages overnight at 37° C. and 5% CO2. Cells were primed with 1 μg/mL of lipopolysaccharide (Invivogen Ultrapure lipopolysaccharide from E. coli, tlrl-3pelps) in assay media for 3 hours at 37° C. and 5% CO2. After priming, media was removed and THP-1 ASC-GFP cells were preincubated with serially diluted test compounds with starting concentration of 40 μM followed by 2-fold dilution for a 20-point curve or vehicle (DMSO) for 30 min in assay media at 37° C. and 5% CO2. Cells were then stimulated with 10 μM nigericin (Invivogen, tlrl-nig-5) for 90 min at 37° C. and 5% CO2 to activate NLRP3 dependent inflammasome pathway and spec formation. After stimulation, cells were fixed with 4.8% paraformaldehyde (Electron Microscopy Sciences #15710-S) and incubated at room temperature for 15 min. Cells were then washed 3-times with 100 μL of phosphate buffered saline and permeabilized in the presence of premeablization/block buffer for 20 min at room temperature. Cells were then washed 3-times with 100 μL phosphate buffered saline and incubated for 1 hr at room temperature in the presence of hoechst. After staining with Hoechst, cells were washed 3-times with 100 μL phosphate buffered saline and imaged for ASC spec formation.
THP-1 ASC-GFP cells were imaged in 488 and Hoechst channels. Hoechst channel was used for cell count and 488 channel was used to identify number of GFP ASC specks in imaged fields. Percentage of cells with a spec was calculated by dividing the number of GFP positive spots by total number of cells.

Q: `CC(C)c1nn(CC(F)F)c(C(C)C)c1NC(=O)NS(=O)(=O)c1cnn2c1OCC(C)(C)C2` [Example 57, N-((1-(2,2-difluoroethyl)-3,5-diisopropyl-1H-pyrazol-4-yl)carbamoyl)-6,6-dimethyl-6,7-dihydro-5H-pyrazolo[5,1-b][1,3]oxazine-3-sulfonamide, ammonia] was tested. Which IC50 did it give?
A: 560 nM

Q: With `CC(C)c1nn(CC(F)(F)F)c(C(C)C)c1NC(=O)NS(=O)(=O)c1cnn2c1OCCC2` [Example 58, N-((3,5-diisopropyl-1-(2,2,2-trifluoroethyl)-1H-pyrazol-4-yl)carbamoyl)-6,7-dihydro-5H-pyrazolo[5,1-b][1,3]oxazine-3-sulfonamide, ammonia] as the compound, how does the IC50 read?
A: 200 nM

Q: `CO[C@@H]1COc2c(S(=O)(=O)NC(=O)Nc3c(C(C)C)nn(CC(F)(F)F)c3C(C)C)cnn2C1` [Example 59a, (S)—N-((3,5-diisopropyl-1-(2,2,2-trifluoroethyl)-1H-pyrazol-4-yl)carbamoyl)-6-methoxy-6,7-dihydro-5H-pyrazolo[5,1-b][1,3]oxazine-3-sulfonamide, ammonia] was tested. Which IC50 did it give?
A: 170 nM

Q: With `CO[C@@H]1COc2c(S(=O)(=O)NC(=O)Nc3c4c(nn3C(C)C)CCC4)cnn2C1` [Example 60a, Sodium (S)—N-((2-isopropyl-2,4,5,6-tetrahydrocyclopenta[c]pyrazol-3-yl)carbamoyl)-6-methoxy-6,7-dihydro-5H-pyrazolo[5,1-b][1,3]oxazine-3-sulfonamide] as the compound, how does the IC50 read?
A: 570 nM

Q: How did the IC50 turn out when `CC(C)n1nc2c(c1NC(=O)NS(=O)(=O)c1cnn3c1OCC(C)(C)C3)CCC2` [Example 61, N-((2-isopropyl-2,4,5,6-tetrahydrocyclopenta[c]pyrazol-3-yl)carbamoyl)-6,6-dimethyl-6,7-dihydro-5H-pyrazolo[5,1-b][1,3]oxazine-3-sulfonamide] was run?
A: 900 nM

Q: With `CO[C@@H]1COc2c(S(=O)(=O)NC(=O)Nc3c(C(C)C)nn(CC(F)F)c3C(C)C)cnn2C1` [Example 62a, (S)—N-((1-(2,2-difluoroethyl)-3,5-diisopropyl-1H-pyrazol-4-yl)carbamoyl)-6-methoxy-6,7-dihydro-5H-pyrazolo[5,1-b][1,3]oxazine-3-sulfonamide, ammonia] as the compound, how does the IC50 read?
A: 640 nM

Q: For `CC(C)c1nn(CC(F)F)c(C(C)C)c1NC(=O)NS(=O)(=O)c1cnn2c1OCCC2` [Example 63, N-((1-(2,2-difluoroethyl)-3,5-diisopropyl-1H-pyrazol-4-yl)carbamoyl)-6,7-dihydro-5H-pyrazolo[5,1-b][1,3]oxazine-3-sulfonamide, ammonia], which IC50 is on record?
A: 350 nM

Q: How did the IC50 turn out when `CN[C@@H]1COc2c(S(=O)(=O)NC(=O)Nc3c(C(C)C)nn(C(F)(F)F)c3C(C)C)cnn2C1` [Example 64a, (S)—N-((3,5-diisopropyl-1-(trifluoromethyl)-1H-pyrazol-4-yl)carbamoyl)-6-(methylamino)-6,7-dihydro-5H-pyrazolo[5,1-b][1,3]oxazine-3-sulfonamide, ammonia] was run?
A: 240 nM

Q: With `CCn1nc(C(C)C)c(NC(=O)NS(=O)(=O)c2cnn3c2OCC(C)(C)C3)c1C(C)C` [Example 65, N-((1-ethyl-3,5-diisopropyl-1H-pyrazol-4-yl)carbamoyl)-6,6-dimethyl-6,7-dihydro-5H-pyrazolo[5,1-b][1,3]oxazine-3-sulfonamide, ammonia] as the compound, how does the IC50 read?
A: 1400 nM

Q: Which IC50 does the source give for `CCn1nc(C(C)C)c(NC(=O)NS(=O)(=O)c2cnn3c2OC[C@@H](NC)C3)c1C(C)C` [Example 66a, (S)—N-((1-ethyl-3,5-diisopropyl-1H-pyrazol-4-yl)carbamoyl)-6-(methylamino)-6,7-dihydro-5H-pyrazolo[5,1-b][1,3]oxazine-3-sulfonamide, ammonia] here?
A: 3600 nM

Q: Which IC50 does the source give for `CC(C)c1nn(C(F)(F)F)c(C(C)C)c1NC(=O)NS(=O)(=O)c1cnn2c1OCCC2` [Example 67, N-((3,5-diisopropyl-1-(trifluoromethyl)-1H-pyrazol-4-yl)carbamoyl)-6,7-dihydro-5H-pyrazolo[5,1-b][1,3]oxazine-3-sulfonamide, ammonia] here?
A: 170 nM

Q: Which IC50 does the source give for `CC(C)c1nn(C)c(C(C)C)c1NC(=O)NS(=O)(=O)c1cnn2c1OCC(C)(C)C2` [Example 68, N-((3,5-diisopropyl-1-methyl-1H-pyrazol-4-yl)carbamoyl)-6,6-dimethyl-6,7-dihydro-5H-pyrazolo[5,1-b][1,3]oxazine-3-sulfonamide, ammonia] here?
A: 1500 nM

Q: How did the IC50 turn out when `COc1cc(-c2cc(C(F)(F)F)nc(C(C)C)c2NC(=O)NS(=O)(=O)c2cnn3c2OCCC3)ccn1` [Example 69, Sodium N-((2-isopropyl-2′-methoxy-6-(trifluoromethyl)-[4,4′-bipyridin]-3-yl)carbamoyl)-6,7-dihydro-5H-pyrazolo[5,1-b][1,3]oxazine-3-sulfonamide] was run?
A: 520 nM

Q: Which IC50 does the source give for `CN[C@@H]1COc2c(S(=O)(=O)NC(=O)Nc3c(C(C)C)nn(CC(F)F)c3C(C)C)cnn2C1` [Example 70a, (S)—N-((1-(2,2-difluoroethyl)-3,5-diisopropyl-1H-pyrazol-4-yl)carbamoyl)-6-(methylamino)-6,7-dihydro-5H-pyrazolo[5,1-b][1,3]oxazine-3-sulfonamide, ammonia] here?
A: 4100 nM

Q: Which IC50 does the source give for `CC(C)c1cc(OC(F)(F)F)nc(C(C)C)c1NC(=O)NS(=O)(=O)c1cnn2c1OCCC2` [Example 71, Sodium N-((2,4-diisopropyl-6-(trifluoromethoxy)pyridin-3-yl)carbamoyl)-6,7-dihydro-5H-pyrazolo[5,1-b][1,3]oxazine-3-sulfonamide] here?
A: 1900 nM

Q: For `CN[C@@H]1COc2c(S(=O)(=O)NC(=O)Nc3c(C(C)C)nn(CC(F)(F)F)c3C(C)C)cnn2C1` [Example 72a, (S)—N-((3,5-diisopropyl-1-(2,2,2-trifluoroethyl)-1H-pyrazol-4-yl)carbamoyl)-6-(methylamino)-6,7-dihydro-5H-pyrazolo[5,1-b][1,3]oxazine-3-sulfonamide, ammonia], which IC50 is on record?
A: 2500 nM

Q: For `CN[C@@H]1COc2c(S(=O)(=O)NC(=O)Nc3c(C(C)C)nn(C)c3C(C)C)cnn2C1` [Example 73a, (S)—N-((3,5-diisopropyl-1-methyl-1H-pyrazol-4-yl)carbamoyl)-6-(methylamino)-6,7-dihydro-5H-pyrazolo[5,1-b][1,3]oxazine-3-sulfonamide, ammonia], which IC50 is on record?
A: 8700 nM

Q: Which IC50 does the source give for `COc1cc(-c2nc(C(F)(F)F)cc(C(C)C)c2NC(=O)NS(=O)(=O)c2cnn3c2OCCC3)ccn1` [Example 74, Sodium N-((4-isopropyl-2′-methoxy-6-(trifluoromethyl)-[2,4′-bipyridin]-3-yl)carbamoyl)-6,7-dihydro-5H-pyrazolo[5,1-b][1,3]oxazine-3-sulfonamide] here?
A: 340 nM

Q: How did the IC50 turn out when `CC(C)c1nn(CC(F)(F)F)c(C(C)C)c1NC(=O)NS(=O)(=O)c1cnn2c1OCC(C)(C)C2` [Example 75, N-((3,5-diisopropyl-1-(2,2,2-trifluoroethyl)-1H-pyrazol-4-yl)carbamoyl)-6,6-dimethyl-6,7-dihydro-5H-pyrazolo[5,1-b][1,3]oxazine-3-sulfonamide, ammonia] was run?
A: 420 nM

Q: How did the IC50 turn out when `CC(C)c1cc(C(F)(F)F)nc(C(C)C)c1NC(=O)NS(=O)(=O)c1cnn2c1OC[C@@H](N(C)C)C2` [Example 76a, (S)—N-((2,4-diisopropyl-6-(trifluoromethyl)pyridin-3-yl)carbamoyl)-6-(dimethylamino)-6,7-dihydro-5H-pyrazolo[5,1-b][1,3]oxazine-3-sulfonamide] was run?
A: 560 nM

Q: How did the IC50 turn out when `CC(C)n1nc2c(c1NC(=O)NS(=O)(=O)c1cnn3c1OC[C@@H](N(C)C)C3)CCC2` [Example 77a, (S)-6-(dimethylamino)-N-((2-isopropyl-2,4,5,6-tetrahydrocyclopenta[c]pyrazol-3-yl)carbamoyl)-6,7-dihydro-5H-pyrazolo[5,1-b][1,3]oxazine-3-sulfonamide] was run?
A: 1900 nM

Q: Which IC50 does the source give for `CO[C@@H]1COc2c(S(=O)(=O)NC(=O)Nc3c(C(C)C)nn(C(F)(F)F)c3C(C)C)cnn2C1` [Example 78a, (S)—N-((3,5-diisopropyl-1-(trifluoromethyl)-1H-pyrazol-4-yl)carbamoyl)-6-methoxy-6,7-dihydro-5H-pyrazolo[5,1-b][1,3]oxazine-3-sulfonamide] here?
A: 71 nM

Q: Which IC50 does the source give for `CC(C)c1nn(C(F)(F)F)c(C(C)C)c1NC(=O)NS(=O)(=O)c1cnn2c1OCC(C)(C)C2` [Example 79, N-((3,5-diisopropyl-1-(trifluoromethyl)-1H-pyrazol-4-yl)carbamoyl)-6,6-dimethyl-6,7-dihydro-5H-pyrazolo[5,1-b][1,3]oxazine-3-sulfonamide] here?
A: 740 nM

Q: For `CO[C@@H]1COc2c(S(=O)(=O)NC(=O)Nc3c(C(C)C)cc(C(F)(F)F)nc3C(C)C)cnn2C1` [Example 80a, (S)—N-((2,4-diisopropyl-6-(trifluoromethyl)pyridin-3-yl)carbamoyl)-6-methoxy-6,7-dihydro-5H-pyrazolo[5,1-b][1,3]oxazine-3-sulfonamide, ammonia], which IC50 is on record?
A: 150 nM
